PubChem BioAssay AID330 (DTP/NCI, 2004)
“And” between values parts separate entries of the source, which are not always exact repeats. Equal values may be shown once. Inconclusive results and toxic doses are left out. Rule for the calls: active = survival T/C of 150% or more; inactive = T/C below 125% in these data.

Tested on: P388 leukemia ip, CD2F1 mice, survival T/C
Experiment: NCI In Vivo Anticancer Drug Screen. Data for tumor model P388 Leukemia (intraperitoneal) in CD2F1 (CDF1) mice
Details: endpoint: median survival time, higher = longer survival
Summary of the method: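 Mice carrying the transplanted tumor received test compound or vehicle. Survival was recorded in each group, and the value is the treated-group measurement divided by that of the vehicle-treated control group.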

[1] = dose: 60.0 mg/kg/injection, schedule: Q01DX005 (ip), vehicle: saline with Tween-80
[2] = dose: 120.0 mg/kg/injection, schedule: Q01DX005 (ip), vehicle: saline with Tween-80
[3] = dose: 50.0 mg/kg/injection, schedule: Q01DX005 (ip), vehicle: saline with Tween-80
[4] = dose: 100.0 mg/kg/injection, schedule: Q01DX005 (ip), vehicle: saline with Tween-80
[5] = dose: 50.0 mg/kg/injection, schedule: Q01DX005 (ip), vehicle: Klucel (hydroxypropylcellulose) (HPC)
[6] = dose: 100.0 mg/kg/injection, schedule: Q01DX005 (ip), vehicle: Klucel (hydroxypropylcellulose) (HPC)
[7] = dose: 200.0 mg/kg/injection, schedule: Q01DX005 (ip), vehicle: Klucel (hydroxypropylcellulose) (HPC)
[8] = dose: 50.0 mg/kg/injection, schedule: Q01DX009 (ip), vehicle: saline with Tween-80
[9] = dose: 100.0 mg/kg/injection, schedule: Q01DX009 (ip), vehicle: saline with Tween-80
[10] = dose: 200.0 mg/kg/injection, schedule: Q01DX009 (ip), vehicle: saline with Tween-80
[11] = dose: 12.5 mg/kg/injection, schedule: Q01DX009 (ip), vehicle: saline with Tween-80
[12] = dose: 25.0 mg/kg/injection, schedule: Q01DX009 (ip), vehicle: saline with Tween-80
[13] = dose: 100.0 mg/kg/injection, schedule: Q01DX009 (ip), vehicle: saline
[14] = dose: 200.0 mg/kg/injection, schedule: Q01DX009 (ip), vehicle: saline

Measured: T/C

CC1=Nc2nc(=N)nc3cccc(n23)N1
inactive: [1] 95 % of control | [2] 104 % of control

COc1ccc(Cc2cc3c(cc2OCCO)OCO3)cc1
inactive: [3] 105 % of control | [4] 103 % of control | dose: 200.0 mg/kg/injection, schedule: Q01DX005 (ip), vehicle: saline with Tween-80 109 % of control

Cn1cnc(=O)c2n[nH]nc21
inactive: [5] 100 % of control | [6] 100 % of control | [7] 87 % of control

COc1ccc(C2C(C#N)=C(N)Oc3c2c(C)nn3-c2ccccc2)cc1 (configuration not stated)
inactive: dose: 50.0 mg/kg/injection, schedule: Q01DX009 (ip), vehicle: Klucel (hydroxypropylcellulose) (HPC) 89 % of control and 92 % of control | dose: 100.0 mg/kg/injection, schedule: Q01DX009 (ip), vehicle: Klucel (hydroxypropylcellulose) (HPC) 99 % of control and 96 % of control | dose: 200.0 mg/kg/injection, schedule: Q01DX009 (ip), vehicle: Klucel (hydroxypropylcellulose) (HPC) 90 % of control and 97 % of control

N#Cc1ccc(OC(=O)Nc2ccccc2C(F)(F)F)cc1
inactive: [1] 86 % of control | [2] 87 % of control

CC1CCCN(C(=O)Nc2ccc([N+](=O)[O-])cc2)C1 (configuration not stated)
inactive: [8] 99 % of control | [9] 94 % of control | [10] 92 % of control

C(=N/n1nnc(-c2ccccc2)n1)/c1ccccc1
inactive: [3] 101 % of control | [4] 92 % of control

CC(=O)OC1C(=O)C(C)(C)CN(C(C)(C)C)CC1(C)C (configuration not stated)
inactive: dose: 50.0 mg/kg/injection, schedule: Q01DX001 (ip), vehicle: saline sonified 100 % of control | dose: 100.0 mg/kg/injection, schedule: Q01DX001 (ip), vehicle: saline sonified 104 % of control | dose: 200.0 mg/kg/injection, schedule: Q01DX001 (ip), vehicle: saline sonified 95 % of control

CCCCCOc1ccc(C(=O)/C(Br)=C/C(=O)O)cc1
inactive: [11] 104 % of control | [12] 109 % of control | [8] 123 % of control

CCC1(CC(=O)O)OCCc2c1[nH]c1c(C)c(Cl)ccc21 (configuration not stated)
inactive: dose: 50.0 mg/kg/injection, schedule: Q01DX001 (ip), vehicle: Klucel (hydroxypropylcellulose) (HPC) 101 % of control | dose: 100.0 mg/kg/injection, schedule: Q01DX001 (ip), vehicle: Klucel (hydroxypropylcellulose) (HPC) 101 % of control | dose: 200.0 mg/kg/injection, schedule: Q01DX001 (ip), vehicle: Klucel (hydroxypropylcellulose) (HPC) 100 % of control

CC1(C)OC2OC(/C=N\NC(=O)c3cc4cc(OCc5ccccc5)ccc4[nH]3)C3OC(C)(C)OC3C2O1 (configuration not stated)
inactive: [5] 102 % of control | [6] 104 % of control | [7] 102 % of control

O=C(/C=C/c1ccc(OCc2ccccc2)cc1)c1ccc(C(F)(F)F)cc1
inactive: [11] 94 % of control | [12] 100 % of control | [8] 90 % of control and 93 % of control | [10] 95 % of control

O=C1c2cc(I)ccc2NC(O)c2cccn21 (configuration not stated)
inactive: dose: 0.1 mg/kg/injection, schedule: Q01DX005 (ip), vehicle: water 93 % of control | dose: 0.2 mg/kg/injection, schedule: Q01DX005 (ip), vehicle: water 93 % of control | dose: 0.4 mg/kg/injection, schedule: Q01DX005 (ip), vehicle: water 99 % of control | dose: 0.8 mg/kg/injection, schedule: Q01DX005 (ip), vehicle: water 100 % of control | dose: 1.6 mg/kg/injection, schedule: Q01DX005 (ip), vehicle: water 96 % of control | dose: 5.0 mg/kg/injection, schedule: Q01DX005 (ip), vehicle: distilled water + Tween-80 94 % of control | dose: 10.0 mg/kg/injection, schedule: Q01DX005 (ip), vehicle: distilled water + Tween-80 100 % of control | dose: 20.0 mg/kg/injection, schedule: Q01DX005 (ip), vehicle: distilled water + Tween-80 99 % of control | dose: 40.0 mg/kg/injection, schedule: Q01DX005 (ip), vehicle: distilled water + Tween-80 92 % of control | dose: 80.0 mg/kg/injection, schedule: Q01DX005 (ip), vehicle: distilled water + Tween-80 93 % of control

C=CC[n+]1ccc2ccccc2c1
inactive: dose: 25.0 mg/kg/injection, schedule: Q01DX009 (ip), vehicle: saline sonified 90 % of control | dose: 50.0 mg/kg/injection, schedule: Q01DX009 (ip), vehicle: saline sonified 90 % of control | dose: 100.0 mg/kg/injection, schedule: Q01DX009 (ip), vehicle: saline sonified 95 % of control

C(=C/c1cc2cc(C3=NCCN3)ccc2o1)/C=C/c1cc2cc(C3=NCCN3)ccc2o1
inactive: dose: 100.0 mg/kg/injection, schedule: Q04DX003 (ip), vehicle: saline 106 % of control | dose: 200.0 mg/kg/injection, schedule: Q04DX003 (ip), vehicle: saline 104 % of control | dose: 400.0 mg/kg/injection, schedule: Q04DX003 (ip), vehicle: saline 110 % of control

CN(C)C(=O)N1OC(CN)CC1=O (configuration not stated)
inactive: dose: 60.0 mg/kg/injection, schedule: Q01DX005 (ip), vehicle: Klucel (hydroxypropylcellulose) (HPC) 105 % of control | dose: 120.0 mg/kg/injection, schedule: Q01DX005 (ip), vehicle: Klucel (hydroxypropylcellulose) (HPC) 104 % of control | dose: 240.0 mg/kg/injection, schedule: Q01DX005 (ip), vehicle: Klucel (hydroxypropylcellulose) (HPC) 105 % of control

C/C(=N\NC(=S)NC12CC3CC(CC(C3)C1)C2)c1ccccn1
inactive: dose: 100.0 mg/kg/injection, schedule: Q04DX003 (ip), vehicle: saline with Tween-80 113 % of control | dose: 200.0 mg/kg/injection, schedule: Q04DX003 (ip), vehicle: saline with Tween-80 104 % of control

Clc1cc2c(nn1)Nc1ccccc1S2
inactive: [11] 97 % of control | [12] 96 % of control | [8] 99 % of control and 87 % of control | [9] 98 % of control | [10] 87 % of control

COC(=O)C(Br)C(Br)c1ccccc1 (configuration not stated)
inactive: dose: 25.0 mg/kg/injection, schedule: Q01DX009 (ip), vehicle: saline 104 % of control and 111 % of control | [8] 110 % of control | dose: 50.0 mg/kg/injection, schedule: Q01DX009 (ip), vehicle: saline 119 % of control | [9] 91 % of control | [13] 120 % of control | dose: 132.0 mg/kg/injection, schedule: Q01DX009 (ip), vehicle: saline with Tween-80 113 % of control | [10] 107 % of control and 113 % of control | [14] 122 % of control | dose: 300.0 mg/kg/injection, schedule: Q01DX009 (ip), vehicle: saline with Tween-80 95 % of control

Oc1cc(O)c(-c2c(O)cc(O)cc2O)c(O)c1 (tested in a mixture with another compound)
inactive: dose: 1.56 mg/kg/injection, schedule: Q01DX005 (ip), vehicle: saline 97 % of control | dose: 3.12 mg/kg/injection, schedule: Q01DX005 (ip), vehicle: saline 106 % of control | dose: 6.25 mg/kg/injection, schedule: Q01DX005 (ip), vehicle: saline 111 % of control | dose: 12.5 mg/kg/injection, schedule: Q01DX005 (ip), vehicle: saline 101 % of control | dose: 25.0 mg/kg/injection, schedule: Q01DX005 (ip), vehicle: saline 96 % of control | dose: 50.0 mg/kg/injection, schedule: Q01DX005 (ip), vehicle: saline 108 % of control

[CH3][Sn]([CH3])([CH3])[Cl]
inactive: dose: 0.19 mg/kg/injection, schedule: Q01DX009 (ip), vehicle: saline 100 % of control | dose: 0.39 mg/kg/injection, schedule: Q01DX009 (ip), vehicle: saline 97 % of control | dose: 0.78 mg/kg/injection, schedule: Q01DX009 (ip), vehicle: saline 101 % of control

ON=C(C(Cl)(Cl)Cl)C(Cl)(Cl)Cl
inactive: [1] 100 % of control | [2] 100 % of control | dose: 240.0 mg/kg/injection, schedule: Q01DX005 (ip), vehicle: saline with Tween-80 97 % of control

COCCOC(=O)Cc1ccc(OC)c(OC)c1
inactive: [13] 91 % of control | [14] 100 % of control | dose: 400.0 mg/kg/injection, schedule: Q01DX009 (ip), vehicle: saline 104 % of control

CC(C)c1nnc2cc3c(cc2c1N)oc1ccccc13
inactive: dose: 100.0 mg/kg/injection, schedule: Q04DX002 (ip), vehicle: saline with Tween-80 87 % of control | dose: 200.0 mg/kg/injection, schedule: Q04DX002 (ip), vehicle: saline with Tween-80 92 % of control | dose: 400.0 mg/kg/injection, schedule: Q04DX002 (ip), vehicle: saline with Tween-80 87 % of control
